Source: patent US11498930B2 (BLUERAY THERAPEUTICS (SHANGHAI) CO., LTD., priority 2018, dated 2022)

The molecules below were run against SHP2^E76A protein (Homo sapiens (Human), UniProt Q06124, E76A) (assay: SHP2 enzyme activity inhibition experiment). Conditions: SHP2 enzyme activity, Tables 1.1 and 1.2; read-out: IC50.
SHP2^E76A protein, sequence (Q06124 whole entry E76A): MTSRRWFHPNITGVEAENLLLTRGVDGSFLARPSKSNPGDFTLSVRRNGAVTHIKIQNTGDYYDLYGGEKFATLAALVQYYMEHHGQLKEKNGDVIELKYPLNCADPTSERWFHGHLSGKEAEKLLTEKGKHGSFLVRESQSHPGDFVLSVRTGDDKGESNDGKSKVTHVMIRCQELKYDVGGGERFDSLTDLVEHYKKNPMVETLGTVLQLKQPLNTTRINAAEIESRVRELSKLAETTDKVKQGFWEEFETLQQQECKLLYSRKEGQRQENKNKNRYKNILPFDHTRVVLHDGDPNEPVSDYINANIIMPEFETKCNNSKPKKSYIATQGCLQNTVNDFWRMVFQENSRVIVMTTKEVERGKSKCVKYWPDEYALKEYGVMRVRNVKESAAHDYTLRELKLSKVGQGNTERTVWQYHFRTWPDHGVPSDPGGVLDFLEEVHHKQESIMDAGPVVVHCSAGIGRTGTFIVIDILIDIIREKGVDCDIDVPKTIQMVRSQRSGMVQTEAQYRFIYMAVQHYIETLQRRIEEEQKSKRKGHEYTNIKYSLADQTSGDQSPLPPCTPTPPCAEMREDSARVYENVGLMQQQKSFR
Format: biochemical
Experimental: Compound powders were dissolved in DMSO to prepare mother liquor.
During the experiment, the stock solutions of the compounds were subjected to 3-fold gradient dilution with DMSO, and 10 different test concentrations of each compound were set. […] The protein used was the activated protein SHP^2E76A with amino acid mutation at position 76 of the protein, and the substrate used was DiFMUP (Invitrogen, E12020). […] 50 µL of enzyme solution was added to the detection wells, followed by 50 µL of substrate. […] GraphPad Prism 5 was used for nonlinear regression analysis, and the curve of enzyme activity versus compound concentration was fitted by the equation Y=Bottom+(Top-Bottom)/(1+10^((Log IC50−X)*HillSlope)) to calculate the IC50 value of each compound.
In the case of NC1CC2(CCN(c3ncc(Sc4cccc(Cl)c4Cl)c4nccn34)CC2)C1 [7-(8-((2,3-dichlorophenyl)thio)imidazo[1,2-c]pyrimidin-5-yl)-7-azaspiro[3.5]nonan-2-amine], the IC50 is reported as 0.1 to 1 µM.
For C[C@H]1OCC2(CCN(c3ncc(Sc4cccc(Cl)c4Cl)c4nncn34)CC2)[C@H]1N, the IC50 was 1 to 10 µM.
N[C@@H]1CCCC12CCN(c1ncc(Sc3ccc(Cl)cc3Cl)c3nccn13)CC2 [(R)-8-(8-((2,4-dichlorophenyl)thio)imidazo[1,2-c]pyrimidin-5-yl)-8-azaspiro[4.5]decan-1-amine] showed an IC50 of 0.1 to 1 µM.
Cc1nc(N)cc(Sc2cnc(N3CCC4(CCC[C@H]4N)CC3)n3ccnc23)c1Cl showed an IC50 of less than 0.1 µM.
In the case of Nc1ccc(Sc2cnc(N3CCC4(CCC[C@H]4N)CC3)n3ncnc23)cc1, the IC50 is reported as 1 to 10 µM.
With N[C@@H]1CCCC12CCN(c1ncc(-c3cccc(Cl)c3Cl)c3nncn13)CC2 [(R)-8-(8-(2,3-dichlorophenyl)-[1,2,4]triazolo[4,3-c]pyrimidin-5-yl)-8-azaspiro[4.5]decan-1-amine] the IC50 was 1 to 10 µM.
In the case of N[C@@H]1CCCC12CCN(c1ncc(Sc3cccnc3Cl)c3nccn13)CC2 [(R)-8-(8-((2-chloropyridin-3-yl)thio)imidazo[1,2-c]pyrimidin-5-yl)-8-azaspiro[4.5]decan-1-amine], the IC50 is reported as less than 0.1 µM.
Work on N[C@@H]1CCCC12CCN(c1ncc(Sc3cccc4c3C(=O)C(=O)N4)c3nccn13)CC2 yielded an IC50 of 0.1 to 1 µM.
For CN(C)c1nccc(Sc2cnc(N3CCC4(CCC[C@H]4N)CC3)n3cnnc23)c1Cl [(R)-8-(8-((3-chloro-2-(dimethylamino)pyridin-4-yl)thio)-[1,2,4]triazolo[4,3-c]pyrimidin-5-yl)-8-azaspiro[4.5]decan-1-amine], the IC50 was 0.1 to 1 µM.
N[C@@H]1CCCC12CCN(c1ncc(Sc3c(Cl)cccc3Cl)c3nncn13)CC2 [(R)-8-(8-((2,6-dichlorophenyl)thio)-[1,2,4]triazolo[4,3-c]pyrimidin-5-yl)-8-azaspiro[4.5]decan-1-amine] showed an IC50 of 1 to 10 µM.
For Nc1ccc(Sc2cnc(N3CCC4(CCC[C@H]4N)CC3)n3ncnc23)c(Cl)n1 [(R)-8-(8-((6-amino-2-chloropyridin-3-yl)thio)-[1,2,4]triazolo[1,5-c]pyrimidin-5-yl)-8-azaspiro[4.5]decan-1-amine], the IC50 was 1 to 10 µM.
With NCC1CCN(c2ncc(Sc3cccc(Cl)c3Cl)c3nccn23)CC1 [(1-(8-((2,3-dichlorophenyl)thio)imidazo[1,2-c]pyrimidin-5-yl)piperidin-4-yl)methanamine] the IC50 was 0.1 to 1 µM.
For Cc1nccc(Sc2cnc(N3CCC4(CC3)CO[C@H](C)[C@H]4N)n3cnnc23)c1Cl [(3R,4S)-8-(8-((3-chloro-2-methylpyridin-4-yl)thio)-[1,2,4]triazolo[4,3-c]pyrimidin-5-yl)-3-methyl-2-oxa-8-azaspiro[4.5]decan-4-amine], the IC50 was less than 0.1 µM.
N[C@@H]1CCCN(c2ncc(Sc3cccc(Cl)c3Cl)c3nccn23)CC1 [(R)-1-(8-((2,3-dichlorophenyl)thio)imidazo[1,2-c]pyrimidin-5-yl)azepan-4-amine] showed an IC50 of 0.1 to 1 µM.
Work on Nc1ccc(Sc2cnc(N3CCC4(CCC[C@H]4N)CC3)n3cnnc23)cc1 [(R)-8-(8-((4-aminophenyl)thio)-[1,2,4]triazolo[4,3-c]pyrimidin-5-yl)-8-azaspiro[4.5]decan-1-amine] yielded an IC50 of 1 to 10 µM.
Cc1ncccc1Sc1cnc(N2CCC3(CCC[C@H]3N)CC2)n2cnnc12 [(R)-8-(8-((2-methylpyridin-3-yl)thio)-[1,2,4]triazolo[4,3-c]pyrimidin-5-yl)-8-azaspiro[4.5]decan-1-amine] gave an IC50 of 0.1 to 1 µM.
C[C@@H]1OCC2(CCN(c3ncc(Sc4cc(N)ncc4Cl)c4nccn34)CC2)[C@@H]1N showed an IC50 of less than 0.1 µM.
CC1CN(c2ncc(Sc3cccc(Cl)c3Cl)c3nncn23)CC(C)N1 (stereo not drawn) [8-((2,3-dichlorophenyl)thio)-5-(3,5-dimethylpiperazin-1-yl)-[1,2,4]triazolo[4,3-c]pyrimidine] showed an IC50 of 1 to 10 µM.
In the case of N[C@@H]1CCCCC12CCN(c1ncc(Sc3cccc(Cl)c3Cl)c3nccn13)CC2 [(R)-3-(8-((2,3-dichlorophenyl)thio)imidazo[1,2-c]pyrimidin-5-yl)-3-azaspiro[5.5]undecan-7-amine], the IC50 is reported as 0.1 to 1 µM.
For CN(C)C(=O)C(=O)Nc1cccc(Sc2cnc(N3CCC4(CCC[C@H]4N)CC3)n3ccnc23)c1Cl, the IC50 was 0.1 to 1 µM.
Nc1cc(Sc2cnc(N3CCC4(CCC[C@H]4N)CC3)n3cnnc23)c(Cl)cn1 [(R)-8-(8-((2-amino-5-chloropyridin-4-yl)thio)-[1,2,4]triazolo[4,3-c]pyrimidin-5-yl)-8-azaspiro[4.5]decan-1-amine] was tested, and the IC50 was 1 to 10 µM.
NC1CC2(CCN(c3ncc(Sc4cccc(Cl)c4Cl)c4nncn34)CC2)C1 [7-(8-((2,3-dichlorophenyl)thio)-[1,2,4]triazolo[4,3-c]pyrimidin-5-yl)-7-azaspiro[3.5]nonan-2-amine] gave an IC50 of 1 to 10 µM.
Nc1ccc(Sc2cnc(N3CCC4(CCC[C@H]4N)CC3)n3ccnc23)c(Cl)n1 [(R)-8-(8-((6-amino-2-chloropyridin-3-yl)thio)imidazo[1,2-c]pyrimidin-5-yl)-8-azaspiro[4.5]decan-1-amine] gave an IC50 of less than 0.1 µM.
C[C@H]1OCC2(CCN(c3ncc(Sc4ccnc(N)c4Cl)c4nncn34)CC2)[C@H]1N was tested, and the IC50 was 1 to 10 µM.
With CC(=O)Nc1ccc(Sc2cnc(N3CCC4(CCC[C@H]4N)CC3)n3cnnc23)cc1 [(R)-N-(4-((5-(1-amino-8-azaspiro[4.5]decan-8-yl)-[1,2,4]triazolo[4,3-c]pyrimidin-8-yl)thio)phenyl)acetamide] the IC50 was 1 to 10 µM.
For CC1(N)CCN(c2ncc(Sc3cccc(Cl)c3Cl)c3ncnn23)CC1 [1-(8-((2,3-dichlorophenyl)thio)-[1,2,4]triazolo[1,5-c]pyrimidin-5-yl)-4-methylpiperidin-4-amine], the IC50 was 1 to 10 µM.
Molecule N[C@@H]1CCCC12CCN(c1ncc(Sc3ccccc3)c3ncnn13)CC2 [(R)-8-(8-(phenylthio)-[1,2,4]triazolo[1,5-c]pyrimidin-5-yl)-8-azaspiro[4.5]decan-1-amine] has an IC50 of 1 to 10 µM.
Work on CC1(N)CCN(c2ncc(-c3cccc(Cl)c3Cl)c3nncn23)CC1 [1-(8-(2,3-dichlorophenyl)-[1,2,4]triazolo[4,3-c]pyrimidin-5-yl)-4-methylpiperidin-4-amine] yielded an IC50 of 1 to 10 µM.
Cn1ccnc1Sc1cnc(N2CCC3(CCC[C@H]3N)CC2)n2cnnc12 [(R)-8-(8-((1-methyl-1H-imidazol-2-yl)thio)-[1,2,4]triazolo[4,3-c]pyrimidin-5-yl)-8-azaspiro[4.5]decan-1-amine] gave an IC50 of 1 to 10 µM.
CC1(N)COCC12CCN(c1ncc(Sc3cccc(Cl)c3Cl)c3nncn13)CC2 (stereo not drawn) [8-(8-((2,3-dichlorophenyl)thio)-[1,2,4]triazolo[4,3-c]pyrimidin-5-yl)-4-methyl-2-oxa-8-azaspiro[4.5]decan-4-amine] was tested, and the IC50 was 1 to 10 µM.
For NC1CCN(c2ncc(Sc3cccc(Cl)c3Cl)c3nncn23)CC1 [1-(8-((2,3-dichlorophenyl)thio)-[1,2,4]triazolo[4,3-c]pyrimidin-5-yl)piperidin-4-amine], the IC50 was 1 to 10 µM.
In the case of N[C@@H]1CCCC12CCN(c1ncc(Sc3ccccc3Cl)c3nccn13)CC2 [(R)-8-(8-((2-chlorophenyl)thio)imidazo[1,2-c]pyrimidin-5-yl)-8-azaspiro[4.5]decan-1-amine], the IC50 is reported as less than 0.1 µM.
Molecule N[C@@H]1CCCC12CCN(c1ncc(Sc3ccnc4ccccc34)c3nncn13)CC2 [(R)-8-(8-(quinolin-4-ylthio)-[1,2,4]triazolo[4,3-c]pyrimidin-5-yl)-8-azaspiro[4.5]decan-1-amine] has an IC50 of less than 0.1 µM.
N[C@@H]1CCCC12CCN(c1ncc(Sc3cccc4ncsc34)c3nccn13)CC2 [(R)-8-(8-(benzo[d]thiazol-7-ylthio)imidazo[1,2-c]pyrimidin-5-yl)-8-azaspiro[4.5]decan-1-amine] gave an IC50 of 0.1 to 1 µM.
Work on NCC1CCN(c2ncc(Sc3cccc(Cl)c3Cl)c3nccn23)C1 (stereo not drawn) [(1-(8-((2,3-dichlorophenyl)thio)imidazo[1,2-c]pyrimidin-5-yl)pyrrolidin-3-yl)methanamine] yielded an IC50 of 0.1 to 1 µM.
For N[C@@H]1CCCC12CCN(c1ncc(Sc3ccnc(Cl)n3)c3nccn13)CC2 [(R)-8-(8-((2-chloropyrimidin-4-yl)thio)imidazo[1,2-c]pyrimidin-5-yl)-8-azaspiro[4.5]decan-1-amine], the IC50 was less than 0.1 µM.
N[C@@H]1CCCC12CCN(c1ncc(Sc3ccccc3)c3nncn13)CC2 [(R)-8-(8-(phenylthio)-[1,2,4]triazolo[4,3-c]pyrimidin-5-yl)-8-azaspiro[4.5]decan-1-amine] showed an IC50 of 1 to 10 µM.
Work on N[C@@H]1CCCC12CCN(c1ncc(Sc3ccccn3)c3nncn13)CC2 [(R)-8-(8-(pyridin-2-ylthio)-[1,2,4]triazolo[4,3-c]pyrimidin-5-yl)-8-azaspiro[4.5]decan-1-amine] yielded an IC50 of 1 to 10 µM.
Molecule Cc1ncccc1Sc1cnc(N2CCC3(CCC[C@H]3N)CC2)n2ccnc12 [(R)-8-(8-((2-methylpyridin-3-yl)thio)imidazo[1,2-c]pyrimidin-5-yl)-8-azaspiro[4.5]decan-1-amine] has an IC50 of less than 0.1 µM.
Molecule CC1(N)CCN(c2ncc(Sc3ccnc(N)c3Cl)c3nccn23)CC1 [4-((5-(4-amino-4-methylpiperidin-1-yl)imidazo[1,2-c]pyrimidin-8-yl)thio)-3-chloropyridin-2-amine] has an IC50 of 0.1 to 1 µM.
N[C@@H]1CCC2CN(c3ncc(Sc4cccc(Cl)c4Cl)c4nncn34)CC21 (stereo partly drawn) [(4R)-2-(8-((2,3-dichlorophenyl)thio)-[1,2,4]triazolo[4,3-c]pyrimidin-5-yl)octahydrocyclopenta[c]pyrrol-4-amine] gave an IC50 of 1 to 10 µM.
N[C@@H]1CCCC12CCN(c1ncc(Sc3ccc4c(c3)CCO4)c3nccn13)CC2 [(R)-8-(8-((2,3-dihydrobenzofuran-5-yl)thio)imidazo[1,2-c]pyrimidin-5-yl)-8-azaspiro[4.5]decan-1-amine] showed an IC50 of 0.1 to 1 µM.
